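Each compound was tested at five concentrations against cells in 96-well plates for 48 hours. At the GI50, growth is halved.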 Activity calls are given as the source filed them. No stated cut-off is given here; in the data, active = GI50 up to about 1.1 µM and inactive = higher.
Tests used:
Assay in all cases: NCI tumour cell line growth inhibition, 48 h
UACC-257 = tested on: UACC-257
TK-10 = tested on: TK-10
786-0 = tested on: 786-0
SNB-19 = tested on: SNB-19
COLO 205 = tested on: COLO 205
HCT-15 = tested on: HCT-15
SW-620 = tested on: SW-620
LOX IMVI = tested on: LOX IMVI
SK-MEL-2 = tested on: SK-MEL-2
DLD-1 = tested on: DLD-1
IGROV-1 = tested on: IGROV-1
NCI-H460 = tested on: NCI-H460
OVCAR-4 = tested on: OVCAR-4
U-251 = tested on: U-251
SR = tested on: SR
SN12C = tested on: SN12C
A549 = tested on: A549
NCI-H23 = tested on: NCI-H23
K562 = tested on: K562
ACHN = tested on: ACHN
SNB-75 = tested on: SNB-75
EKVX = tested on: EKVX
HCC 2998 = tested on: HCC 2998
LXFL 529 = tested on: LXFL 529
HT-29 = tested on: HT-29
XF498 = tested on: XF498
CCRF-CEM = tested on: CCRF-CEM
DMS-273 = tested on: DMS-273
HOP-62 = tested on: HOP-62
MOLT-4 = tested on: MOLT-4
Malme-3M = tested on: Malme-3M
RXF 631 = tested on: RXF 631
M19-MEL = tested on: M19-MEL
A498 = tested on: A498
RPMI-8226 = tested on: RPMI-8226
UO-31 = tested on: UO-31
SF-539 = tested on: SF-539
HL-60 = tested on: HL-60
UACC-62 = tested on: UACC-62
SK-MEL-28 = tested on: SK-MEL-28
SK-OV-3 = tested on: SK-OV-3
OVCAR-8 = tested on: OVCAR-8
CAKI-1 = tested on: CAKI-1
M14 = tested on: M14
KM12 = tested on: KM12
SF-295 = tested on: SF-295
NCI-H226 = tested on: NCI-H226
SK-MEL-5 = tested on: SK-MEL-5
RXF 393 = tested on: RXF 393
KM-20L2 = tested on: KM-20L2
OVCAR-5 = tested on: OVCAR-5
HOP-92 = tested on: HOP-92
DMS-114 = tested on: DMS-114
SF-268 = tested on: SF-268
NCI-H522 = tested on: NCI-H522
SNB-78 = tested on: SNB-78
HCT-116 = tested on: HCT-116
HOP-18 = tested on: HOP-18
OVCAR-3 = tested on: OVCAR-3

Oc1cc(-c2ccco2)nc2cc3c(cc12)OCO3
GI50 (UACC-257): 60 µM (inactive)
GI50 (TK-10): 72.6 µM (inactive)
GI50 (786-0): 26.5 µM (inactive)
GI50 (SNB-19): 27.1 µM (inactive)
GI50 (COLO 205): 17.6 µM (inactive)
GI50 (HCT-15): 38.3 µM
GI50 (SW-620): 25.9 µM (inactive)
GI50 (LOX IMVI): 50.6 µM (inactive)
GI50 (SK-MEL-2): 57.8 µM (inactive)
GI50 (DLD-1): 39 µM (inactive)
GI50 (IGROV-1): 29.6 µM (inactive)
GI50 (NCI-H460): 34.3 µM (inactive)
GI50 (OVCAR-4): 34.1 µM (inactive)
GI50 (U-251): > 100 µM (inactive)
GI50 (SR): 54.3 µM (inactive)
GI50 (SN12C): 55.5 µM (inactive)
GI50 (A549): 52.8 µM (inactive)
GI50 (NCI-H23): 80.9 µM (inactive)
GI50 (K562): 6.61 µM (inactive)
GI50 (ACHN): 91 µM (inactive)
GI50 (SNB-75): 12.5 µM (inactive)
GI50 (EKVX): > 100 µM (inactive)
GI50 (HCC 2998): > 100 µM (inactive)
GI50 (LXFL 529): 58.9 µM (inactive)
GI50 (HT-29): 43.3 µM (inactive)
GI50 (XF498): 39.8 µM (inactive)
GI50 (CCRF-CEM): 38.4 µM (inactive)
GI50 (DMS-273): 20 µM (inactive)
GI50 (HOP-62): 10.9 µM (inactive)
GI50 (MOLT-4): 33.7 µM (inactive)
GI50 (Malme-3M): 42.4 µM (inactive)
GI50 (RXF 631): 52.2 µM (inactive)
GI50 (M19-MEL): 44.9 µM (inactive)
GI50 (A498): 35.6 µM (inactive)
GI50 (RPMI-8226): 40.1 µM (inactive)
GI50 (UO-31): 46.2 µM (inactive)
GI50 (SF-539): 25.7 µM (inactive)
GI50 (HL-60): 27.7 µM (inactive)
GI50 (UACC-62): 27.9 µM (inactive)
GI50 (SK-MEL-28): > 100 µM (inactive)

O=C(Nc1cccc(O)c1)C(=O)C(C(=O)c1ccccc1F)C1OC(=O)c2ccccc21 (centres undefined)
GI50 (UACC-257): 84.5 µM (inactive)
GI50 (TK-10): 58.9 µM (inactive)
GI50 (SNB-19): 19.9 µM (inactive)
GI50 (SK-OV-3): 36.1 µM (inactive)
GI50 (COLO 205): 23.2 µM (inactive)
GI50 (OVCAR-8): 14.6 µM (inactive)
GI50 (HCT-15): 18.3 µM
GI50 (SW-620): 35.7 µM (inactive)
GI50 (LOX IMVI): 22.9 µM (inactive)
GI50 (CAKI-1): 32.9 µM (inactive)
GI50 (M14): 23.5 µM (inactive)
GI50 (KM12): 18.4 µM (inactive)
GI50 (SF-295): 52.6 µM (inactive)
GI50 (SK-MEL-2): 20.9 µM (inactive)
GI50 (DLD-1): 34.2 µM (inactive)
GI50 (NCI-H226): 17.2 µM (inactive)
GI50 (IGROV-1): 38.7 µM (inactive)
GI50 (NCI-H460): 29.4 µM (inactive)
GI50 (OVCAR-4): 23.9 µM (inactive)
GI50 (SK-MEL-5): 36.1 µM (inactive)
GI50 (RXF 393): 18.5 µM (inactive)
GI50 (U-251): 11.6 µM (inactive)
GI50 (SR): 24.9 µM (inactive)
GI50 (SN12C): 19.4 µM (inactive)
GI50 (A549): 29.4 µM (inactive)
GI50 (NCI-H23): 27 µM (inactive)
GI50 (KM-20L2): 25.7 µM (inactive)
GI50 (K562): 37.3 µM (inactive)
GI50 (OVCAR-5): 57 µM (inactive)
GI50 (HOP-92): 68.1 µM (inactive)
GI50 (ACHN): 37.7 µM (inactive)
GI50 (SNB-75): 17.5 µM (inactive)
GI50 (DMS-114): 13.8 µM (inactive)
GI50 (EKVX): 34 µM (inactive)
GI50 (HCC 2998): 22.2 µM (inactive)
GI50 (LXFL 529): 16.4 µM (inactive)
GI50 (HT-29): 36.7 µM (inactive)
GI50 (CCRF-CEM): 18.3 µM (inactive)
GI50 (DMS-273): 24.2 µM (inactive)
GI50 (HOP-62): 29.9 µM (inactive)
GI50 (MOLT-4): 28.6 µM (inactive)
GI50 (RXF 631): 21.6 µM (inactive)
GI50 (M19-MEL): 18.1 µM (inactive)
GI50 (SF-268): 19.6 µM (inactive)
GI50 (A498): 66.5 µM (inactive)
GI50 (NCI-H522): 17.3 µM (inactive)
GI50 (RPMI-8226): 23.4 µM (inactive)
GI50 (SNB-78): 24.2 µM (inactive)
GI50 (UO-31): 32.1 µM (inactive)
GI50 (SF-539): 15.2 µM (inactive)
GI50 (HL-60): 28.7 µM (inactive)
GI50 (UACC-62): 16.9 µM (inactive)
GI50 (SK-MEL-28): 31 µM (inactive)
GI50 (HCT-116): 18 µM (inactive)

COc1cc2c(c(OC)c1OC)-c1ccc(SC)c(=O)cc1C(CC(=O)Oc1ccc([N+](=O)[O-])cc1)C2 (centres undefined)
GI50 (UACC-257): 0.486 µM (active)
GI50 (TK-10): 4.8 µM (inactive)
GI50 (HOP-18): > 33.5 µM (inactive)
GI50 (SNB-19): 1.34 µM (inactive)
GI50 (SK-OV-3): 0.0207 µM (active)
GI50 (HCT-15): 0.78 µM
GI50 (CAKI-1): 0.207 µM (active)
GI50 (M14): 0.0607 µM (active)
GI50 (SK-MEL-2): 0.336 µM (active)
GI50 (NCI-H226): 0.128 µM (active)
GI50 (IGROV-1): 0.344 µM (active)
GI50 (OVCAR-4): 3.85 µM (inactive)
GI50 (SK-MEL-5): 0.0726 µM (active)
GI50 (OVCAR-3): 0.0538 µM (active)
GI50 (RXF 393): 0.0331 µM (active)
GI50 (A549): 0.123 µM (active)
GI50 (NCI-H23): 0.132 µM (active)
GI50 (KM-20L2): 0.0476 µM (active)
GI50 (K562): < 0.0444 µM (active)
GI50 (OVCAR-5): 6.1 µM (inactive)
GI50 (HOP-92): 0.762 µM (active)
GI50 (SNB-75): 0.286 µM (active)
GI50 (DMS-114): 0.0902 µM (active)
GI50 (EKVX): 7.29 µM (inactive)
GI50 (HCC 2998): 0.119 µM (active)
GI50 (XF498): 0.0873 µM (active)
GI50 (CCRF-CEM): 0.0792 µM (active)
GI50 (HOP-62): 4.44 µM (inactive)
GI50 (MOLT-4): 0.113 µM (active)
GI50 (RXF 631): < 0.01 µM (active)
GI50 (M19-MEL): 0.18 µM (active)
GI50 (SF-268): 0.137 µM (active)
GI50 (A498): 0.0469 µM (active)
GI50 (NCI-H522): 0.0551 µM (active)
GI50 (SNB-78): 0.044 µM (active)
GI50 (UO-31): 1.95 µM (inactive)
GI50 (HL-60): 0.226 µM (active)
GI50 (SK-MEL-28): 0.19 µM (active)

COc1cc(O)c2c(c1)C(=O)c1cc(C)cc(O)c1C2=O [PHYSCION]
GI50 (UACC-257): > 100 µM (inactive)
GI50 (HOP-18): 51.9 µM (inactive)
GI50 (SNB-19): > 100 µM (inactive)
GI50 (SK-OV-3): > 100 µM (inactive)
GI50 (COLO 205): > 100 µM (inactive)
GI50 (OVCAR-8): > 100 µM (inactive)
GI50 (SW-620): > 100 µM (inactive)
GI50 (LOX IMVI): > 100 µM (inactive)
GI50 (CAKI-1): > 100 µM (inactive)
GI50 (M14): > 100 µM (inactive)
GI50 (KM12): > 100 µM (inactive)
GI50 (SF-295): > 100 µM (inactive)
GI50 (SK-MEL-2): > 100 µM (inactive)
GI50 (DLD-1): > 100 µM (inactive)
GI50 (NCI-H226): > 100 µM (inactive)
GI50 (IGROV-1): > 100 µM (inactive)
GI50 (NCI-H460): > 100 µM (inactive)
GI50 (OVCAR-4): > 100 µM (inactive)
GI50 (SK-MEL-5): > 100 µM (inactive)
GI50 (OVCAR-3): > 100 µM (inactive)
GI50 (U-251): > 100 µM (inactive)
GI50 (SR): > 100 µM (inactive)
GI50 (SN12C): > 100 µM (inactive)
GI50 (A549): > 100 µM (inactive)
GI50 (NCI-H23): > 100 µM (inactive)
GI50 (KM-20L2): > 100 µM (inactive)
GI50 (K562): > 100 µM (inactive)
GI50 (OVCAR-5): > 100 µM (inactive)
GI50 (ACHN): > 100 µM (inactive)
GI50 (SNB-75): 93.8 µM (inactive)
GI50 (DMS-114): > 100 µM (inactive)
GI50 (EKVX): > 100 µM (inactive)
GI50 (HCC 2998): > 100 µM (inactive)
GI50 (LXFL 529): > 100 µM (inactive)
GI50 (HT-29): > 100 µM (inactive)
GI50 (CCRF-CEM): > 100 µM (inactive)
GI50 (HOP-62): > 100 µM (inactive)
GI50 (MOLT-4): > 100 µM (inactive)
GI50 (Malme-3M): > 100 µM (inactive)
GI50 (RXF 631): > 100 µM (inactive)
GI50 (M19-MEL): > 100 µM (inactive)
GI50 (SF-268): > 100 µM (inactive)
GI50 (A498): > 100 µM (inactive)
GI50 (NCI-H522): 78.5 µM (inactive)
GI50 (RPMI-8226): > 100 µM (inactive)
GI50 (SNB-78): > 100 µM (inactive)
GI50 (UO-31): > 100 µM (inactive)
GI50 (SF-539): > 100 µM (inactive)
GI50 (HL-60): > 100 µM (inactive)
GI50 (UACC-62): > 100 µM (inactive)
GI50 (SK-MEL-28): > 100 µM (inactive)
GI50 (HCT-116): > 100 µM (inactive)
